# Source: US20240342156A1, “METHODS FOR TREATING PAIN” (Xenon Pharmaceuticals Inc., priority 2019, published 2024)
# How the values were obtained:
# [1] = tested on: rat spinal nerve ligation (SNL)/Chung model of neuropathic pain; assay: Spinal nerve ligation (SNL)/Chung model, thermal allodynia, cold plate test on lesioned paw; format: in vivo
# Description: (§1) Objective: The efficacy of Compound A was assessed using the rat spinal nerve ligation (SNL)/Chung model of neuropathic pain. The SNL model in rats was developed as described previously (Chung J M, Kim H K, Chung K. “Segmental spinal nerve ligation model of neuropathic pain.” Methods Mol. Med. 99 (2004) 35-45).
# Study Design. Briefly, on Day 0, von Frey and cold plate tests were used for baseline measurements of tactile and cold allodynia respectively. Post-baseline measurements, rats (171-209 g male Sprague Dawley) were anesthetized and an incision at the L4-S2 level was performed to expose the left L5 nerve. […] The wound was then sutured and the rats were allowed to recover. On Day 13, post-surgery baselines for tactile and cold allodynia were measured to verify neuropathic pain. Animals were assigned to treatment groups based on the post-surgery baseline score.
# (§2) Dosing: For efficacy testing, Compound A was dosed orally once a day for 5 consecutive days from Day 14-18.
# The cold plate apparatus was maintained at 4±1° C. and was surrounded by an acrylic glass enclosure. Rats were placed on the plate for a period of 5 minutes. The latency to 1st paw-withdrawal, total number of paw withdrawals, and total duration of withdrawal responses were recorded for the surgery hind paw.
# [2] = tested on: rat spinal nerve ligation (SNL)/Chung model of neuropathic pain; assay: Spinal nerve ligation (SNL)/Chung model, tactile allodynia, electronic von Frey test on lesioned paw; format: in vivo
# Description: as §1
# (§3) Study Design. Briefly, on Day 0, von Frey and cold plate tests were used for baseline measurements of tactile and cold allodynia respectively. Post-baseline measurements, rats (171-209 g male Sprague Dawley) were anesthetized and an incision at the L4-S2 level was performed to expose the left L5 nerve. A ligature was tied tightly around the L5 nerve (Chung et al.; R. Dost et al., “The anti-hyperalgesic activity of Retigabine is mediated by KCNQ potassium channel activation.” Naunyn-Schmiedeberg's Arch. Pharmacol. 369 (2004) 382-390; Gordon Blackburn-Munro et al., “The anticonvulsant retigabine attenuates nociceptive behaviors in rat models of persistent and neuropathic pain.” Eur. J Pharmacol. 460 (2003) 109-116; and Wu Y J et al., “Discovery of (S,E)-3-(2-fluorophenyl)-N-(1-(3-(pyridin-3-yloxy)phenyl)ethyl)-acrylamide as a potent and efficacious KCNQ2 (Kv7.2) opener for the treatment of neuropathic pain.” Bioorg Med. Chem. Lett. 23 (2013) 6188-91). The wound was then sutured and the rats were allowed to recover. On Day 13, post-surgery baselines for tactile and cold allodynia were measured to verify neuropathic pain. Animals were assigned to treatment groups based on the post-surgery baseline score.
# as §2
# Rats were placed under an inverted acrylic plastic box on a grid floor. The tip of an electronic von Frey probe was then applied with increasing force to the surgery hind paw and the force required to induce paw-withdrawal was automatically recorded. The procedure was carried out 3 times and the mean paw withdrawal force was calculated. The experimenter was double blinded to treatment.
# [3] = Body weight of SNL rats over the duration of testing; format: in vivo, rat
# Description: as §3, §2
# [4] = Day 14, test 1 h after administration, 128 mg/kg p.o.
# [5] = Day 18, test 1 h after administration, 128 mg/kg p.o. once on Day 14 and on Day 18
# [6] = Day 18 at 2 h, 20 mg/kg p.o. once daily Day 14-18
smiles,measurement,setting,value
"CN1CC[C@]23c4c5ccc(O)c4O[C@H]2[C@@H](O)C=C[C@H]3[C@H]1C5.Cl [Morphine, Morphine hydrochloride, reference compound]","Latency to first paw-withdrawal (s), Mean ± s.e.m.",[1]; [4],201.3 ± 35.8 s
same,"Latency to first paw-withdrawal, compared with Vehicle (p.o.), Δ%",[1]; [4],+55%
same,"Number of withdrawal responses, Mean ± s.e.m.",[1]; [4],7.9 ± 2.8
same,"Number of withdrawal responses, compared with Vehicle (p.o.), Δ%",[1]; [4],−22%
same,"Latency to first paw-withdrawal (s), Mean ± s.e.m.",[1]; [5],235.8 ± 33.2 s
same,"Latency to first paw-withdrawal, compared with Vehicle (p.o.), Δ%",[1]; [5],+150%
same,"Number of withdrawal responses, Mean ± s.e.m.",[1]; [5],4.6 ± 2.8
same,"Number of withdrawal responses, compared with Vehicle (p.o.), Δ%",[1]; [5],−58%
same,"Force inducing paw-withdrawal (g), Delta from baseline compared with Vehicle (p.o.), Δ",[2]; [4],+27.4 g
same,"Force inducing paw-withdrawal (g), Delta from baseline, Mean ± s.e.m.",[2]; [4],+27.7 ± 5.6 g
same,"Force inducing paw-withdrawal (g), Mean ± s.e.m.",[2]; [4],50.6 ± 5.0 g
same,"Force inducing paw-withdrawal (g), Delta from baseline compared with Vehicle (p.o.), Δ",[2]; [5],+24.3 g
same,"Force inducing paw-withdrawal (g), Delta from baseline, Mean ± s.e.m.",[2]; [5],+27.1 ± 4.6 g
same,"Force inducing paw-withdrawal (g), Mean ± s.e.m.",[2]; [5],50.0 ± 4.5 g
same,Body weight (g) (mean ± s.e.m.),"[3]; Day 14, 128 mg/kg p.o. once on Day 14 and on Day 18",295.9 ± 4.6 g
same,Body weight (g) (mean ± s.e.m.),"[3]; Day 15, 128 mg/kg p.o. once on Day 14 and on Day 18",312.8 ± 5.5 g
same,Body weight (g) (mean ± s.e.m.),"[3]; Day 16, 128 mg/kg p.o. once on Day 14 and on Day 18",302.0 ± 5.4 g
same,Body weight (g) (mean ± s.e.m.),"[3]; Day 17, 128 mg/kg p.o. once on Day 14 and on Day 18",298.9 ± 5.4 g
same,Body weight (g) (mean ± s.e.m.),"[3]; Day 18, 128 mg/kg p.o. once on Day 14 and on Day 18",306.7 ± 5.2 g
"CCOC(=O)Nc1ccc(NCc2ccc(F)cc2)cc1N [Retigabine, reference compound]","Latency to first paw-withdrawal (s), Mean ± s.e.m.","[1]; Day 14 at 2 h, 20 mg/kg p.o.",272.7 ± 20.1 s
same,"Latency to first paw-withdrawal, compared with Vehicle (p.o.), Δ%","[1]; Day 14 at 2 h, 20 mg/kg p.o.",+110%
same,"Number of withdrawal responses, Mean ± s.e.m.","[1]; Day 14 at 2 h, 20 mg/kg p.o.",1.5 ± 1.3
same,"Number of withdrawal responses, compared with Vehicle (p.o.), Δ%","[1]; Day 14 at 2 h, 20 mg/kg p.o.",−85%
same,"Total duration of withdrawal responses (s), Mean ± s.e.m.","[1]; Day 14 at 2 h, 20 mg/kg p.o.",0.3 ± 0.3 s
same,"Total duration of withdrawal responses, compared with Vehicle (p.o.), Δ%","[1]; Day 14 at 2 h, 20 mg/kg p.o.",−86%
same,"Latency to first paw-withdrawal (s), Mean ± s.e.m.",[1]; [6],209.3 ± 36.1 s
same,"Latency to first paw-withdrawal, compared with Vehicle (p.o.), Δ%",[1]; [6],+122%
same,"Number of withdrawal responses, Mean ± s.e.m.",[1]; [6],3.4 ± 1.3
same,"Number of withdrawal responses, compared with Vehicle (p.o.), Δ%",[1]; [6],−69%
same,"Total duration of withdrawal responses (s), Mean ± s.e.m.",[1]; [6],27.3 ± 23.5 s
same,"Total duration of withdrawal responses, compared with Vehicle (p.o.), Δ%",[1]; [6],+153%
same,"Force inducing paw-withdrawal (g), Delta from baseline compared with Vehicle (p.o.), Δ","[2]; Day 14 at 2 h, 20 mg/kg p.o.",+4.0 g
same,"Force inducing paw-withdrawal (g), Delta from baseline, Mean ± s.e.m.","[2]; Day 14 at 2 h, 20 mg/kg p.o.",+4.0 ± 2.2 g
same,"Force inducing paw-withdrawal (g), Mean ± s.e.m.","[2]; Day 14 at 2 h, 20 mg/kg p.o.",26.5 ± 2.5 g
same,"Force inducing paw-withdrawal (g), Delta from baseline compared with Vehicle (p.o.), Δ",[2]; [6],+6.4 g
same,"Force inducing paw-withdrawal (g), Delta from baseline, Mean ± s.e.m.",[2]; [6],+9.2 ± 2.1 g
same,"Force inducing paw-withdrawal (g), Mean ± s.e.m.",[2]; [6],31.8 ± 2.2 g
same,Body weight (g) (mean ± s.e.m.),"[3]; Day 14, 20 mg/kg p.o. once daily Day 14-18",300.8 ± 4.8 g
same,Body weight (g) (mean ± s.e.m.),"[3]; Day 15, 20 mg/kg p.o. once daily Day 14-18",312.6 ± 5.1 g
same,Body weight (g) (mean ± s.e.m.),"[3]; Day 16, 20 mg/kg p.o. once daily Day 14-18",321.1 ± 5.2 g
same,Body weight (g) (mean ± s.e.m.),"[3]; Day 17, 20 mg/kg p.o. once daily Day 14-18",330.6 ± 5.3 g
same,Body weight (g) (mean ± s.e.m.),"[3]; Day 18, 20 mg/kg p.o. once daily Day 14-18",336.8 ± 5.7 g
